A short description of data set [1]: Blood levels of salmon calcitonin after injection into duodenum, ileum or colon. Type of data set: in vivo. To be noted: rat, other: injected directly into the duodenum, active components injected directly into the duodenum. The text has this: The pH-lowering agent is believed to lower the local pH (where the active agent has been released) to levels below the optimal range for many intestinal proteases. This decrease in pH reduces the proteolytic activity of the intestinal proteases, thus affording protection to the peptide from potential degradation should the peptide be present within the intestine. The activity of these proteases is diminished by the temporarily acidic environment as discussed herein. For example, sufficient acid should be provided that local intestinal pH is lowered temporarily to 5.5 or below, 4.7 or below, or 3.5 or below. The sodium bicarbonate test described below (in the section captioned “the pH-Lowering Agent”) is indicative of the required acid amount. […] The absorption enhancers of the present formulations synergistically promote peptide absorption into the blood while conditions of reduced proteolytic activity prevail. The mechanism by which the present formulations are believed to accomplish the goal of enhanced bioavailability is aided by having active components of the finished pharmaceutical product released together as simultaneously as possible.
The acid is believed to lower the local intestinal pH, where the aromatic-cationic peptide has been released, to levels below the optimal range for many intestinal proteases and other intestinal enzymes. […]

For data set [2] the following is noted: dog, in vivo. The protocol:
A second series of tests will be carried out, as noted above, using beagle dogs. […] In the experiments, size 00 HPLC capsules will be filled with 758 mg of a powdered blend consisting of citric acid (643 mg), lauroyl carnitine (66 mg), talc (33 mg), salmon calcitonin (sCT) (13 mg) and aromatic-cationic peptide (2.4 mg). Half of the capsules will be coated with an enteric coating solution of L30D-55, while the remaining 50% of the capsules will not be coated. Four fasted dogs will be each given 1 uncoated capsule, and 2 weeks later they will be each given an enteric coated capsule. […] The plasma samples will be subsequently analyzed for sCT by a direct ELISA, and for aromatic-cationic peptide by HPLC-mass spectrometry performed as set forth in Wan, H. and Desiderio, D., Quantitation of dmt-DALDA in ovine plasma by on-line liquid chromatography/quadrapole time-of-flight mass spectrometry, Rapid Communications in Mass Spectrometry, 2003; 17, 538-546, the contents of which are incorporated herein by reference.
The results will be summarized as plasma peptide concentration normalized to a 1 mg dose as a function of time relative to the average Tmax, (i.e., the time at which the maximum amount of peptide is detected). The results are expected to indicate that both peptides, i.e., sCT and aromatic-cationic peptide, are detected in dogs given uncoated or enteric coated capsules.

As usually defined, the Tmax is the time at which the peak concentration occurs.

Molecules are shown by their SMILES.

Turning to `CC(C)C[C@H](NC(=O)[C@H](CCCCN)NC(=O)CNC(=O)[C@H](CC(C)C)NC(=O)[C@@H](NC(=O)[C@@H]1CSSC[C@H](N)C(=O)N[C@@H](CO)C(=O)N[C@@H](CC(N)=O)C(=O)N[C@@H](CC(C)C)C(=O)N[C@@H](CO)C(=O)N[C@@H]([C@@H](C)O)C(=O)N1)C(C)C)C(=O)N[C@@H](CO)C(=O)N[C@@H](CCC(N)=O)C(=O)N[C@@H](CCC(=O)O)C(=O)N[C@@H](CC(C)C)C(=O)N[C@@H](Cc1c[nH]cn1)C(=O)N[C@@H](CCCCN)C(=O)N[C@@H](CC(C)C)C(=O)N[C@@H](CCC(N)=O)C(=O)N[C@H](C(=O)N[C@@H](Cc1ccc(O)cc1)C(=O)N1CCC[C@H]1C(=O)N[C@@H](CCCNC(=N)N)C(=O)N[C@H](C(=O)N[C@@H](CC(N)=O)C(=O)N[C@H](C(=O)NCC(=O)N[C@@H](CO)C(=O)NCC(=O)N[C@H](C(=O)N1CCC[C@H]1C(N)=O)[C@@H](C)O)[C@@H](C)O)[C@@H](C)O)[C@@H](C)O` [salmon calcitonin], in data set [1], the Tmax fell in the range of 5 to 15 min. Further, the “amount detected in plasma, enteric coated vs non-coated capsules” value in data set [2] is on record as “nearly eight times”.
